# Activity calls are given as the source filed them.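 The calls were made as follows: active = compounds raising the area under the GFP-over-time curve by more than 15% versus untreated cells, meaning slower Sic1 breakdown; inactive = the rest.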 Residues, ends and D or L forms follow the SMILES beside them. *: point of attachment. Cbz = O=C(OCc1ccccc1)*
# Tested on: S. cerevisiae Cln2-overexpressing, Sic1-GFP degradation, flow cytometry
# Assay: yeast Sic1-GFP turnover with elevated Cln2 – secondary assay, flow cytometry, S. cerevisiae, mechanism study for 26S proteasome disassembly project (AID 1314)
row,SMILES,outcome
1,CC(=O)N1C(=O)C(=C2C=C(C)OC(C)=C2)c2ccccc21,active; degradation inhibitor
2,CC(C)C[C@@H](C=O)NC(=O)[C@H](CC(C)C)NC(=O)[C@H](CC(C)C)NC(=O)OCc1ccccc1 (Cbz-Leu-Leu-Leu-aldehyde),active; degradation inhibitor
